Measured values taken from patent US20240132431A1, “METHOD FOR ALKYLATING ACIDIC FUNCTIONAL GROUP” (Chugai Seiyaku Kabushiki Kaisha, priority 2021, published 2024).

Target: T1, Bcl-2 protein (Recombinant Human Bcl-2 Protein) (Homo sapiens, UniProt P10415)
T1 construct: purchased Novus NBP2-34889
Assay: Binding evaluation of mixture library compounds to Bcl-2 using AS-MS (affinity selection mass spectrometry)
Conditions: AS-MS on the mixture of 1200 library compounds, ASMS Ratio(%)=(A−C)/B×100; for ASMS ratio (%) n = 1: replicate n = 1; for ASMS ratio (%) n = 2: replicate n = 2
Summary of the method: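 ASMS Ratio (%) was calculated as (A−C)/B×100, where A is the protein sample after SEC, B the protein-free sample without SEC and C the protein-free sample after SEC. Each compound was at […] in a 1200-member pool with 20 μM Bcl-2, incubated 1 h at 23° C.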

T1 sequence (P10415 whole entry): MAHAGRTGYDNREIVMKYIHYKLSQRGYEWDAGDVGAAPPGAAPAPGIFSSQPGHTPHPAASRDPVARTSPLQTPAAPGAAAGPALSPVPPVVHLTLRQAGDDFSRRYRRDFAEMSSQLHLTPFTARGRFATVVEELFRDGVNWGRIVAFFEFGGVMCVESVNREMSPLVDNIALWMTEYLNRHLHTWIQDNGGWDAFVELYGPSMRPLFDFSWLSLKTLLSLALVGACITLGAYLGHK

Row | ASMS ratio (%) n = 1 [%] | ASMS ratio (%) n = 2 [%] | SMILES
1 | −7.5 | −5.5 | CCOc1cncc(-c2cc(CN3CCN(c4ccc(C(=O)N(C)CC56CC7CC(CC(C7)C5)C6)cc4)CC3)cc(OC(F)(F)F)c2)c1 [B3A064-01, N-(1-Adamantylmethyl)-4-[4-[[3-(5-ethoxypyridin-3-yl)-5-(trifluoromethoxy)phenyl]methyl]piperazin-1-yl]-N-methylbenzamide]
2 | 0.0 | 0.0 | CCOc1cccc(-c2ccc(CN3CCN(c4ccc(C(=O)N(C)CC56CC7CC(CC(C7)C5)C6)cc4)CC3)c3ccccc23)c1 [B3A065-01, N-(1-Adamantylmethyl)-4-[4-[[4-(3-ethoxyphenyl)naphthalen-1-yl]methyl]piperazin-1-yl]-N-methylbenzamide]
3 | 6.3 | −2.9 | CCOc1cncc(-c2ccc(CN3CCN(c4ccc(C(=O)N(C)CC56CC7CC(CC(C7)C5)C6)cc4)CC3)c3ccccc23)c1 [B3A066-01, N-(1-Adamantylmethyl)-4-[4-[[4-(5-ethoxypyridin-3-yl)naphthalen-1-yl]methyl]piperazin-1-yl]-N-methylbenzamide]
4 | −7.3 | 4.0 | CCOc1cccc(-c2csc(CN3CCN(c4ccc(C(=O)N(C)CC56CC7CC(CC(C7)C5)C6)cc4)CC3)c2)c1 [B3A067-01, N-(1-Adamantylmethyl)-4-[4-[[4-(3-ethoxyphenyl)thiophen-2-yl]methyl]piperazin-1-yl]-N-methylbenzamide]
5 | 1.4 | −3.6 | CCOc1cncc(-c2csc(CN3CCN(c4ccc(C(=O)N(C)CC56CC7CC(CC(C7)C5)C6)cc4)CC3)c2)c1 [B3A068-01, N-(1-Adamantylmethyl)-4-[4-[[4-(5-ethoxypyridin-3-yl)thiophen-2-yl]methyl]piperazin-1-yl]-N-methylbenzamide]
6 | – | 12872.1 | CCOc1cccc(C#Cc2ccccc2CN2CCN(c3ccc(C(=O)N(C)CC45CC6CC(CC(C6)C4)C5)cc3)CC2)c1 [B3A069-01, N-(1-Adamantylmethyl)-4-[4-[[2-[2-(3-ethoxyphenyl)ethynyl]phenyl]methyl]piperazin-1-yl]-N-methylbenzamide]
7 | 7.7 | −8.1 | CCOc1cncc(C#Cc2ccccc2CN2CCN(c3ccc(C(=O)N(C)CC45CC6CC(CC(C6)C4)C5)cc3)CC2)c1 [B3A070-01, N-(1-Adamantylmethyl)-4-[4-[[2-[2-(5-ethoxypyridin-3-yl)ethynyl]phenyl]methyl]piperazin-1-yl]-N-methylbenzamide]
8 | 3.2 | −4.7 | CCOc1cccc(-c2ccccc2CN2CCN(c3ccc(C(=O)N(C)CC45CC6CC(CC(C6)C4)C5)nn3)CC2)c1 [B3A071-01, N-(1-Adamantylmethyl)-6-[4-[[2-(3-ethoxyphenyl)phenyl]methyl]piperazin-1-yl]-N-methylpyridazine-3-carboxamide]
9 | 11.6 | 3.1 | CCOc1cncc(-c2ccccc2CN2CCN(c3ccc(C(=O)N(C)CC45CC6CC(CC(C6)C4)C5)nn3)CC2)c1 [B3A072-01, N-(1-Adamantylmethyl)-6-[4-[[2-(5-ethoxypyridin-3-yl)phenyl]methyl]piperazin-1-yl]-N-methylpyridazine-3-carboxamide]
10 | 10.7 | −17.2 | CCOc1cncc(-c2ccc(CN3CCN(c4ccc(C(=O)N(C)CC56CC7CC(CC(C7)C5)C6)nn4)CC3)cc2C)c1 [B3A074-01, N-(1-Adamantylmethyl)-6-[4-[[4-(5-ethoxypyridin-3-yl)-3-methylphenyl]methyl]piperazin-1-yl]-N-methylpyridazine-3-carboxamide]
11 | −5.8 | −16.0 | CCOc1cccc(-c2ccc(CN3CCN(c4ccc(C(=O)N(C)CC56CC7CC(CC(C7)C5)C6)nn4)CC3)c(CC)c2)c1 [B3A075-01, N-(1-Adamantylmethyl)-6-[4-[[4-(3-ethoxyphenyl)-2-ethylphenyl]methyl]piperazin-1-yl]-N-methylpyridazine-3-carboxamide]
12 | 6.5 | −0.9 | CCOc1cncc(-c2ccc(CN3CCN(c4ccc(C(=O)N(C)CC56CC7CC(CC(C7)C5)C6)nn4)CC3)c(CC)c2)c1 [B3A076-01, N-(1-Adamantylmethyl)-6-[4-[[4-(5-ethoxypyridin-3-yl)-2-ethylphenyl]methyl]piperazin-1-yl]-N-methylpyridazine-3-carboxamide]
13 | 4.1 | −2.8 | CCOc1cccc(-c2ccc(CN3CCN(c4ccc(C(=O)N(C)CC56CC7CC(CC(C7)C5)C6)nn4)CC3)cc2F)c1 [B3A077-01, N-(1-Adamantylmethyl)-6-[4-[[4-(3-ethoxyphenyl)-3-fluorophenyl]methyl]piperazin-1-yl]-N-methylpyridazine-3-carboxamide]
14 | 4.5 | −1.5 | CCOc1cncc(-c2ccc(CN3CCN(c4ccc(C(=O)N(C)CC56CC7CC(CC(C7)C5)C6)nn4)CC3)cc2F)c1 [B3A078-01, N-(1-Adamantylmethyl)-6-[4-[[4-(5-ethoxypyridin-3-yl)-3-fluorophenyl]methyl]piperazin-1-yl]-N-methylpyridazine-3-carboxamide]
15 | −5.8 | 5.4 | CCOc1cccc(-c2ccc(CN3CCN(c4ccc(C(=O)N(C)CC56CC7CC(CC(C7)C5)C6)nn4)CC3)c(OC)c2)c1 [B3A079-01, N-(1-Adamantylmethyl)-6-[4-[[4-(3-ethoxyphenyl)-2-methoxyphenyl]methyl]piperazin-1-yl]-N-methylpyridazine-3-carboxamide]
16 | 1.7 | −1.8 | CCOc1cncc(-c2ccc(CN3CCN(c4ccc(C(=O)N(C)CC56CC7CC(CC(C7)C5)C6)nn4)CC3)c(OC)c2)c1 [B3A080-01, N-(1-Adamantylmethyl)-6-[4-[[4-(5-ethoxypyridin-3-yl)-2-methoxyphenyl]methyl]piperazin-1-yl]-N-methylpyridazine-3-carboxamide]
17 | 13.4 | −14.2 | CCOc1cccc(-c2cc(CN3CCN(c4ccc(C(=O)N(C)CC56CC7CC(CC(C7)C5)C6)nn4)CC3)cc(OCC)c2)c1 [B3A081-01, N-(1-Adamantylmethyl)-6-[4-[[3-ethoxy-5-(3-ethoxyphenyl)phenyl]methyl]piperazin-1-yl]-N-methylpyridazine-3-carboxamide]
18 | −0.9 | 4.4 | CCOc1cncc(-c2cc(CN3CCN(c4ccc(C(=O)N(C)CC56CC7CC(CC(C7)C5)C6)nn4)CC3)cc(OCC)c2)c1 [B3A082-01, N-(1-Adamantylmethyl)-6-[4-[[3-ethoxy-5-(5-ethoxypyridin-3-yl)phenyl]methyl]piperazin-1-yl]-N-methylpyridazine-3-carboxamide]
19 | 3.9 | −18.6 | CCOc1cccc(-c2cc(CN3CCN(c4ccc(C(=O)N(C)CC56CC7CC(CC(C7)C5)C6)nn4)CC3)cc(OC(C)C)c2)c1 [B3A083-01, N-(1-Adamantylmethyl)-6-[4-[[3-(3-ethoxyphenyl)-5-propan-2-yloxyphenyl]methyl]piperazin-1-yl]-N-methylpyridazine-3-carboxamide]
20 | −17.6 | −7.4 | CCOc1cncc(-c2cc(CN3CCN(c4ccc(C(=O)N(C)CC56CC7CC(CC(C7)C5)C6)nn4)CC3)cc(OC(C)C)c2)c1 [B3A084-01, N-(1-Adamantylmethyl)-6-[4-[[3-(5-ethoxypyridin-3-yl)-5-propan-2-yloxyphenyl]methyl]piperazin-1-yl]-N-methylpyridazine-3-carboxamide]
21 | 5.3 | −7.1 | CCOc1cccc(-c2cc(OC)c(CN3CCN(c4ccc(C(=O)N(C)CC56CC7CC(CC(C7)C5)C6)nn4)CC3)c(OC)c2)c1 [B3A085-01, N-(1-Adamantylmethyl)-6-[4-[[4-(3-ethoxyphenyl)-2,6-dimethoxyphenyl]methyl]piperazin-1-yl]-N-methylpyridazine-3-carboxamide]
22 | −2.7 | −1.9 | CCOc1cncc(-c2cc(OC)c(CN3CCN(c4ccc(C(=O)N(C)CC56CC7CC(CC(C7)C5)C6)nn4)CC3)c(OC)c2)c1 [B3A086-01, N-(1-Adamantylmethyl)-6-[4-[[4-(5-ethoxypyridin-3-yl)-2,6-dimethoxyphenyl]methyl]piperazin-1-yl]-N-methylpyridazine-3-carboxamide]
23 | 0.4 | 1.4 | CCOc1cccc(-c2cc(CN3CCN(c4ccc(C(=O)N(C)CC56CC7CC(CC(C7)C5)C6)nn4)CC3)cc(C(F)(F)F)c2)c1 [B3A087-01, N-(1-Adamantylmethyl)-6-[4-[[3-(3-ethoxyphenyl)-5-(trifluoromethyl)phenyl]methyl]piperazin-1-yl]-N-methylpyridazine-3-carboxamide]
24 | 2.5 | 2.4 | CCOc1cncc(-c2cc(CN3CCN(c4ccc(C(=O)N(C)CC56CC7CC(CC(C7)C5)C6)nn4)CC3)cc(C(F)(F)F)c2)c1 [B3A088-01, N-(1-Adamantylmethyl)-6-[4-[[3-(5-ethoxypyridin-3-yl)-5-(trifluoromethyl)phenyl]methyl]piperazin-1-yl]-N-methylpyridazine-3-carboxamide]
25 | −5.5 | −7.2 | CCOc1cccc(-c2cc(CN3CCN(c4ccc(C(=O)N(C)CC56CC7CC(CC(C7)C5)C6)nn4)CC3)cc(OC(F)(F)F)c2)c1 [B3A089-01, N-(1-Adamantylmethyl)-6-[4-[[3-(3-ethoxyphenyl)-5-(trifluoromethoxy)phenyl]methyl]piperazin-1-yl]-N-methylpyridazine-3-carboxamide]
